Laboratory results published in US12264173B2 (GILEAD SCIENCES, INC., priority 2020, dated 2025).
Where two headings read alike, the source gives them in different places.

What was measured:
Type in all cases: cell-based
RSV strain A2 = assay: microbe, parasite or virus in culture; details: read-out: RSV HEp-2 EC50
Procedure: Antiviral activity against RSV is determined using an infectious cytopathic cell protection assay in HEp-2 cells. In this assay, compounds inhibiting viral infection and/or replication produce a cytoprotective effect against the virus-induced cell killing that can be quantified using a cell viability reagent. The techniques used here are novel adaptations of methods described in published literature (Chapman et al., Antimicrob Agents Chemother. 2007, 51(9):3346-53.).
HEp-2 cells are obtained from ATCC (Manassas, VI) and maintained in MEM media supplemented with 10% fetal bovine serum and penicillin/streptomycin. Cells are passaged twice a week and kept at subconfluent stage. Commercial stock of RSV strain A2 (Advanced Biotechnologies, Columbia, MD) is titered before compound testing to determine the appropriate dilution of the virus stock that generates desirable cytopathic effect in HEp-2 cells.
For antiviral tests, HEp-2 cells are grown in large cell culture flasks to near confluency but not fully so. The compounds to be tested are prediluted in DMSO in 384-well compound dilution plates, either in an 8 or 40 sample per plate standardized dose response format. 3-fold serial dilution increments of each test compound are prepared in the plates and test samples are transferred via acoustic transfer apparatus (Echo, Labcyte) at 100 nL per well into cell culture assay 384-well plates. Each compound dilution is transferred in single or quadruplicate samples into dry assay plates, which are stored until assay is ready to go. The positive and negative controls are laid out in opposite on ends of the plate in vertical blocks (1 column).
Subsequently, an infectious mixture is prepared using an appropriate dilution of virus stock previously determined by titration with cells at a density of 50,000/mL and 20 µL/well is added to test plates w/compounds via automation (uFlow, Biotek). Each plate includes negative and positive controls (16 replicates each) to create 0% and 100% virus inhibition standards, respectively. Following the infection with RSV, testing plates are incubated for 4 days in a 37° C. cell culture incubator. After the incubation, a cell viability reagent, Cell TiterGlo (Promega, Madison, WI) is added to the assay plates, which are incubated briefly, and a luminescent readout is measured (Envision, Perkin Elmer) in all the assay plates. The RSV-induced cytopathic effect, percentage inhibition, is determined from the levels of remaining cell viability. […] Various potent anti-RSV tool compounds are used as positive controls for antiviral activity.

RSV A2 = assay: RSV NHBE EC50 (RSV A2 antiviral assay in NHBE cells); details: read-out: RSV NHBE EC50
Procedure: Normal human bronchial epithelial (NHBE) cells were purchased from Lonza (Walkersville, MD, Cat #CC-2540) and cultured in Bronchial Epithelial Growth Media (BEGM) (Lonza, Walkersville, MD, Cat #CC-3170). The cells were passaged 1-2 times per week to maintain <80% confluency. The NHBE cells were discarded after 6 passages in culture.
To conduct the RSV A2 antiviral assay, NHBE cells were plated in 96-well plates at a density of 7,500 cells per well in BEGM and allowed to attach overnight at 37° C. Following attachment, 100 μL of cell culture media was removed and 3-fold serially diluted compound was added using a Hewlett-Packard D300 Digital Dispenser. The final concentration of DMSO was normalized to 0.05%. Following compound addition, the NHBE cells were infected by the addition of 100 μL of RSV A2 at a titer of 1×10^4.5 tissue culture infectious doses/mL in BEGM and then incubated at 37° C. for 4 days. The NHBE cells were then allowed to equilibrate to 25° C. and cell viability was determined by removing 100 μL of culture medium and adding 100 μL of Cell-Titer Glo viability reagent. The mixtures were incubated for 10 minutes at 25° C., and the luminescence signal was quantified on an Envision luminescence plate reader.

HRV16 = HRV16 HeLa EC50 (cytopathic effect in H1-HeLa cells); details: read-out: HRV16 HeLa EC50
Procedure: H1-HeLa cells, cultured in complete DMEM medium containing 10% heat-inactivated FBS and 1% Penicillin/Streptomycin, were seeded in 96 well plates at 3000 cells/well one day prior to compound dosing and infection. The antiviral activity of each compound was measured in triplicate. Compounds were added directly to the cell cultures in serial 3-fold dilutions using the HP300 digital dispenser (Hewlett Packard, Palo Alto, CA) immediately prior to infection. The plates were transferred to BSL-2 containment and the appropriate dilution of virus stock, previously determined by titration and prepared in cell culture media, was added to test plates containing cells and serially diluted compounds. Each plate included 6 wells of infected untreated cells and 6 wells of uninfected cells that served as 0% and 100% virus inhibition control, respectively. Following the infection, test plates were incubated for 96 h in a tissue culture incubator set to 33° C./5% CO2. Following incubation, the H1-HeLa cells were removed from incubation and allowed to equilibrate to 25° C. Cell viability was determined by removing 100 μL of culture medium and adding 100 μL of Cell-Titer Glo viability reagent. The mixtures were incubated on a shaker for 10 minutes at 25° C., and the luminescence signal was quantified on an Envision luminescence plate reader.

[1] = human respiratory syncytial virus, HEp-2, 96 h, Table 3, HEp-2 cells, RSV A2, 4 days
[2] = human respiratory syncytial virus, NHBE, 96 h, Table 3, NHBE cells, RSV A2, 4 days
[3] = 96 h, Table 3, H1-HeLa cells, 96 h

Row | Compound | EC50 (RSV strain A2; [1]) | EC50 (RSV A2; [2]) | EC50 (HRV16; [3]) | EC50 (RSV strain A2; Table 3, HEp-2 cells, RSV A2, 4 days) | EC50 (RSV A2; Table 3, NHBE cells, RSV A2, 4 days) | EC50 (HRV16; Table 3, H1-HeLa cells, 96 h) | EC50 (RSV strain A2; human respiratory syncytial virus, HEp-2, Table 5 comparative activity, 2',3'-OH vs -OC(O)iPr) | EC50 (RSV A2; human respiratory syncytial virus, NHBE, Table 5 comparative activity, 2',3'-OH vs -OC(O)iPr) | EC50 (HRV16; HeLa, Table 5 comparative activity, 2',3'-OH vs -OC(O)iPr)
1 | COC(=O)[C@H](C)N[P@](=O)(OC[C@@]1(C#N)O[C@@H](c2ccc3c(NC(=O)C4CCN(C)CC4)ncnn23)[C@H](OC(=O)C2CCN(C)CC2)[C@@H]1OC(=O)C1CCN(C)CC1)Oc1ccccc1 [Example 220, (2R,3S,4S,5S)-2-cyano-2-((((S)-(((S)-1-methoxy-1-oxopropan-2-yl)amino)(phenoxy)phosphoryl)oxy)methyl)-5-(4-(1-methylpiperidine-4-carboxamido)pyrrolo[2,1-f][1,2,4]triazin-7-yl)tetrahydrofuran-3,4-diyl bis(1-methylpiperidine-4-carboxylate)] | 0.167 µM | 4.86 µM | 13.5 µM | – | – | – | – | – | –
2 | CC(C)[C@H](N)C(=O)O[C@H]1[C@H](c2ccc3c(N)ncnn23)O[C@](C#N)(COP(=O)(N[C@@H](C)C(=O)OC2CCOCC2)Oc2ccccc2)[C@H]1OC(=O)[C@@H](N)C(C)C (stereo partly drawn) [Example 221, (2R,3S,4S,5S)-5-(4-aminopyrrolo[2,1-f][1,2,4]triazin-7-yl)-2-cyano-2-((((((S)-1-oxo-1-((tetrahydro-2H-pyran-4-yl)oxy)propan-2-yl)amino)(phenoxy)phosphoryl)oxy)methyl)tetrahydrofuran-3,4-diyl (2S,2'S)-bis(2-amino-3-methylbutanoate)] | – | – | – | 0.66 µM | 1.17 µM | 8.99 µM | – | – | –
3 | COCCCOC(=O)[C@H](C)NP(=O)(OC[C@@]1(C#N)O[C@@H](c2ccc3c(N)ncnn23)[C@H](OC(=O)C(C)C)[C@@H]1OC(=O)C(C)C)Oc1ccccc1 (stereo partly drawn) [Example 222, (2R,3S,4S,5S)-5-(4-Aminopyrrolo[2,1-f][1,2,4]triazin-7-yl)-2-cyano-2-((((((S)-1-(3-methoxypropoxy)-1-oxopropan-2-yl)amino)(phenoxy)phosphoryl)oxy)methyl) tetrahydrofuran-3,4-diyl bis(2-methylpropanoate)] | 0.027 µM | 0.025 µM | 0.146 µM | – | – | – | – | – | –
4 | CC(C)C(=O)O[C@H]1[C@H](c2ccc3c(N)ncnn23)O[C@](C#N)(COP(=O)(N[C@@H](C)C(=O)OCCN(C(C)C)C(C)C)Oc2ccccc2)[C@H]1OC(=O)C(C)C (stereo partly drawn) [Example 224, (2R,3S,4S,5S)-5-(4-aminopyrrolo[2,1-f][1,2,4]triazin-7-yl)-2-cyano-2-((((((S)-1-(2-(diisopropylamino)ethoxy)-1-oxopropan-2-yl)amino)(phenoxy)phosphoryl)oxy)methyl)tetrahydrofuran-3,4-diyl bis(2-methylpropanoate)] | 0.378 µM | 0.986 µM | 1.7 µM | – | – | – | – | – | –
5 | CC(C)C(=O)O[C@H]1[C@H](c2ccc3c(N)ncnn23)O[C@](C#N)(COP(=O)(N[C@@H](C)C(=O)O[C@H]2CCN(C)C2)Oc2ccccc2)[C@H]1OC(=O)C(C)C (stereo partly drawn) [Example 228, (2R,3S,4S,5S)-5-(4-aminopyrrolo[2,1-f][1,2,4]triazin-7-yl)-2-cyano-2-((((((S)-1-(((S)-1-methylpyrrolidin-3-yl)oxy)-1-oxopropan-2-yl)amino)(phenoxy)phosphoryl)oxy)methyl)tetrahydrofuran-3,4-diyl bis(2-methylpropanoate)] | 0.084 µM | 0.059 µM | 0.956 µM | – | – | – | 0.084 µM | 0.059 µM | 0.956 µM
6 | COCCC(=O)O[C@H]1[C@H](c2ccc3c(N)ncnn23)O[C@](C#N)(CO[P@@](=O)(N[C@@H](C)C(=O)OC)Oc2ccccc2)[C@H]1OC(=O)CCOC [Example 231, (2R,3S,4S,5S)-5-(4-aminopyrrolo[2,1-f][1,2,4]triazin-7-yl)-2-cyano-2-((((S)-(((S)-1-methoxy-1-oxopropan-2-yl)amino)(phenoxy)phosphoryl)oxy)methyl) tetrahydrofuran-3,4-diyl bis(3-methoxypropanoate)] | 0.124 µM | 0.075 µM | 1.73 µM | – | – | – | – | – | –
7 | CC(C)C(=O)O[C@H]1[C@H](c2ccc3c(N)ncnn23)O[C@](C#N)(COP(=O)(N[C@@H](C)C(=O)O[C@@H]2CCN(C)C2)Oc2ccccc2)[C@H]1OC(=O)C(C)C (stereo partly drawn) [Example 232, (2R,3S,4S,5S)-5-(4-aminopyrrolo[2,1-f][1,2,4]triazin-7-yl)-2-cyano-2-((((((S)-1-(((R)-1-methylpyrrolidin-3-yl)oxy)-1-oxopropan-2-yl)amino)(phenoxy)phosphoryl)oxy)methyl)tetrahydrofuran-3,4-diyl bis(2-methylpropanoate)] | 0.095 µM | 0.053 µM | 0.88 µM | – | – | – | – | – | –
8 | COC(=O)[C@H](C)NP(=O)(OC[C@@]1(C#N)O[C@@H](c2ccc3c(N)ncnn23)[C@H](OC(=O)C(C)C)[C@@H]1OC(=O)C(C)C)Oc1ccc(C[C@H](N)C(=O)OC)cc1 (stereo partly drawn) [Example 235, (2R,3S,4S,5S)-2-((((4-((S)-2-amino-3-methoxy-3-oxopropyl)phenoxy)(((S)-1-methoxy-1-oxopropan-2-yl)amino)phosphoryl)oxy)methyl)-5-(4-aminopyrrolo[2,1-f][1,2,4]triazin-7-yl)-2-cyanotetrahydrofuran-3,4-diyl bis(2-methylpropanoate)] | 0.742 µM | 0.113 µM | 2.27 µM | – | – | – | – | – | –
9 | CC(C)C(=O)O[C@H]1[C@H](c2ccc3c(N)ncnn23)O[C@](C#N)(COP(=O)(N[C@@H](C)C(=O)OCc2ccccc2)Oc2ccccc2)[C@H]1OC(=O)C(C)C (stereo partly drawn) [Example 236, (2R,3S,4S,5S)-5-(4-aminopyrrolo[2,1-f][1,2,4]triazin-7-yl)-2-((((((S)-1-(benzyloxy)-1-oxopropan-2-yl)amino)(phenoxy)phosphoryl)oxy)methyl)-2-cyanotetrahydrofuran-3,4-diyl bis(2-methylpropanoate)] | 0.049 µM | 0.024 µM | 0.136 µM | – | – | – | – | – | –
10 | CC(C)C(=O)O[C@H]1[C@H](c2ccc3c(N)ncnn23)O[C@](C#N)(COP(=O)(N[C@@H](C)C(=O)OCCCN2CCOCC2)Oc2ccccc2)[C@H]1OC(=O)C(C)C (stereo partly drawn) [Example 237, (2R,3S,4S,5S)-5-(4-aminopyrrolo[2,1-f][1,2,4]triazin-7-yl)-2-cyano-2-((((((S)-1-(3-morpholinopropoxy)-1-oxopropan-2-yl)amino)(phenoxy)phosphoryl)oxy)methyl) tetrahydrofuran-3,4-diyl bis(2-methylpropanoate)] | 0.106 µM | 0.043 µM | 0.478 µM | – | – | – | – | – | –
